Test results taken from patent US11274090B2, “P300/CBP HAT inhibitors” (Constellation Pharmaceuticals, Inc., priority 2018, dated 2022).

biological target: p300 HAT domain (residues 1287-1666) (Homo sapiens (Human), UniProt Q09472); test: p300 HAT SPA assay (scintillation proximity assay, acetylation of biotinylated H3(1-21) peptide); format: biochemical; details: average of at least 2 replicate titrations
Method in brief: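 Purified p300 HAT domain reaction transferred to streptavidin plates to capture biotinylated H3(1-21) peptide, incubated 1.5 hr at RT, and read by scintillation proximity. IC50 values derived from concentration-response data.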

Chain of p300 HAT domain (residues 1287-1666) (Q09472 1287-1666): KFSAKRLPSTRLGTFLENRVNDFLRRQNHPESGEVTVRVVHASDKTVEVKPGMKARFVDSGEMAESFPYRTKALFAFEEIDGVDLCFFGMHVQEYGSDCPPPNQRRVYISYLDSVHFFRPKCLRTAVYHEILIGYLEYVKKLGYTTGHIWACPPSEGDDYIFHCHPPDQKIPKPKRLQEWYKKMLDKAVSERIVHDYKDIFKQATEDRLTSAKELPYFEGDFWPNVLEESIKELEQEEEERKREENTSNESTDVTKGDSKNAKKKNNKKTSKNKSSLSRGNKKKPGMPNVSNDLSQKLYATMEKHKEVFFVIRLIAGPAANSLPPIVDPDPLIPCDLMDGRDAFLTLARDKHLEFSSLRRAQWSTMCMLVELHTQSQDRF

Row | Compound | IC50 [nM]
1 | CC(CNC(C(=O)Nc1ccc(-c2cn(C)nn2)cn1)c1ccccc1)c1ccc(C#N)cc1 (single isomer, unassigned) [100 Isomer 3] | > 2000
2 | CC(CNC(C(=O)Nc1ccc(-c2cnn(C)c2)cc1)c1ccccc1)c1ccc(Cl)cc1 (single isomer, unassigned) [2 Isomer 4] | > 5000
3 | COc1ccc(C(NCCc2ccc(C#N)cc2)C(=O)Nc2ccc(-c3cnn(C)c3)cn2)cc1 (single isomer, unassigned) [63 Isomer 1] | 86
4 | Cc1nc(NC(=O)C(NCC(C)c2ccc(C#N)cc2)c2ccccc2)ccc1-c1cnn(C)c1 (single isomer, unassigned) [39 Isomer 3] | 17.7
5 | CC1C(=O)N(C)CCN1c1ccc(NC(=O)C(NC[C@@H](C)c2ccc(C#N)cc2)c2ccccc2)nc1 (single isomer, unassigned) [126 Isomer 1] | 21.1
6 | COc1cc(NC(=O)C(NCCc2ccc(C#N)cc2)c2ccccc2)ccc1-c1cnn(C)c1 (single isomer, unassigned) [25 Isomer 2] | > 5000
7 | Cc1cc(C#N)nn1CCNC(C(=O)Nc1ccc(-c2cnn(C)c2)cn1)c1ccccc1 (single isomer, unassigned) [145 Isomer 2] | > 2000
8 | CC1CN(C)C(=O)CN1c1ccc(NC(=O)C(NC[C@@H](C)c2ccc(C#N)cc2)c2ccccc2)nc1 (single isomer, unassigned) [125 Isomer 2] | > 2000
9 | (S,R)-, (R,S)-, (S,S)-, (R,R)-(2-((2-(4-cyanophenyl)propyl)amino)-N-(5-(1-(difluoromethyl)-1H-pyrazol-4-yl)pyridin-2-yl)-2-phenylacetamide [20 Isomer 4] | > 2000
10 | COc1cccc(C(NCCc2ccc(C#N)cc2)C(=O)Nc2ccc(-c3cnn(C)c3)cn2)c1 (single isomer, unassigned) [70 Isomer 1] | > 2000
11 | CN1CCN(c2ccc(NC(=O)[C@H](NCCc3ccc(C#N)cc3)c3ccccc3)cc2)CC1 (single isomer, unassigned; isomer 2) [18 Isomer 2] | > 5000
12 | N#Cc1ccc(CCNC(C(=O)Nc2ccc(N3CCCC3)nc2)c2ccccc2)cc1 (single isomer, unassigned) [35 Isomer 2] | > 5000
13 | C[C@H](CNC(C(=O)Nc1ccc(-c2cnn(CC(N)=O)c2)cn1)c1ccccc1)c1ccc(C#N)cc1 (single isomer, unassigned) [147 Isomer 1] | 1880
14 | CC(CNC(C(=O)Nc1ccc(-c2cnn(C(C)(C)C)c2)cn1)c1ccccc1)c1ccc(C#N)cc1 (single isomer, unassigned) [54 Isomer 2] | 23.9
15 | Cn1cc(-c2ccc(NC(=O)C(NCCc3ccc(C#N)cn3)c3ccccc3)nc2)cn1 (single isomer, unassigned) [142 Isomer 2] | 210
16 | NS(=O)(=O)c1ccc(CCN[C@H](C(=O)N2CCc3ccccc32)c2ccccc2)cc1 (single isomer, unassigned) [153 Isomer 2] | 1930
17 | CS(=O)(=O)N1CCN(c2ccc(NC(=O)C(NCCc3ccc(C#N)cc3)c3ccccc3)nc2)CC1 (single isomer, unassigned) [68 Isomer 1] | > 2000
18 | Cn1cc(-c2ccc(NC(=O)C(NCCc3ccc(C#N)cc3)c3ccccc3)nn2)cn1 (single isomer, unassigned) [57 Isomer 1] | 815
19 | CC(CNC(C(=O)Nc1ccc(N2CCN(C)C(=O)C2)cn1)c1ccccc1)c1ccc(C#N)cc1 (single isomer, unassigned) [101 Isomer 2] | 245

Row | Compound | IC50 [nM]
20 | Cc1ccc(CCNC(C(=O)Nc2ccc(-c3cnn(C)c3)cn2)c2ccccc2)cn1 (single isomer, unassigned) [141 Isomer 2] | > 2000
21 | Cc1ccc(C(C)CNC(C(=O)Nc2ccc(-c3cnn(C)c3)cn2)c2ccccc2)cn1 (single isomer, unassigned) [143 Isomer 1] | > 2000
22 | N#Cc1ccc(CCNC(C(=O)Nc2ccc(N3CCC(F)(F)CC3)cn2)c2ccccc2)cc1 (single isomer, unassigned) [38 Isomer 1] | 206
23 | CC(CNC(C(=O)Nc1ccc(-c2cnn(C(C)(C)C#N)c2)cn1)c1ccccc1)c1ccc(C#N)cc1 (single isomer, unassigned) [47 Isomer 4] | 425
24 | Cc1nc(-c2ccc(NC(=O)C(NC[C@@H](C)c3ccc(C#N)cc3)c3ccccc3)nc2)no1 (single isomer, unassigned) [107 Isomer 2] | 72.3
25 | Cc1cc(C#N)nn1CCNC(C(=O)Nc1ccc(-c2cnn(C)c2)cn1)c1ccccc1 (single isomer, unassigned) [145 Isomer 1] | 783
26 | Cc1ccc(C(C)CNC(C(=O)Nc2ccc(-c3cnn(C)c3)cn2)c2ccccc2)cn1 (single isomer, unassigned) [143 Isomer 4] | 171
27 | COC1CN(c2ccc(NC(=O)C(NCC(C)c3ccc(C#N)cc3)c3ccccc3)nc2)C1 (single isomer, unassigned) [32 Isomer 3] | > 2000
28 | N#Cc1ccc(CCNC(C(=O)Nc2ccn(C3CCOCC3)n2)c2ccccc2)cc1 (single isomer, unassigned) [30 Isomer 1] | > 5000
29 | Cn1cc(-c2ccc(NC(=O)C(NCCc3ccc(C#N)cc3)c3ccccc3)cc2Cl)cn1 (single isomer, unassigned) [27 Isomer 2] | > 5000
30 | Cn1cc(-c2ccc(NC(=O)C(NCCc3ccc(C#N)cc3)c3cccc(C#N)c3)nc2)cn1 (single isomer, unassigned) [116 Isomer 1] | 443
31 | CC(CNC(C(=O)Nc1ccc(-c2cnn(CC(F)(F)F)c2)cn1)c1ccccc1)c1ccc(C#N)cc1 (single isomer, unassigned) [83 Isomer 4] | 20.6
32 | CC(CNC(C(=O)Nc1ccc(-c2cn(C)nn2)cn1)c1ccccc1)c1ccc(C#N)cc1 (single isomer, unassigned) [100 Isomer 1] | 668
33 | Cc1cn(-c2ccc(NC(=O)[C@@H](NCCc3ccc(Cl)cc3)c3ccccc3)cc2)cn1 (single isomer, unassigned) [16 Isomer 2] | > 5000
34 | CC(CNC(C(=O)Nc1ccc(-c2cnn(C(C)(C)C#N)c2)cn1)c1ccccc1)c1ccc(C#N)cc1 (single isomer, unassigned) [47 Isomer 3] | > 2000
35 | Cn1cc(-c2ccc(NC(=O)C(NCCc3ccc(C#N)cc3)c3ccccc3)c(Cl)c2)cn1 (single isomer, unassigned) [26 Isomer 2] | 1850
36 | N#Cc1ccc(CCNC(C(=O)Nc2ccc(N3CCC4(COC4)C3)cn2)c2ccccc2)cc1 (single isomer, unassigned) [96 Isomer 2] | > 2000
37 | Cn1cc(-c2cnc(NC(=O)C(NCCc3ccc(C#N)cc3)c3ccccc3)c(Cl)c2)cn1 (single isomer, unassigned) [43 Isomer 1] | 185
38 | CC(CNC(C(=O)Nc1ccc(-c2cnn(C)c2)cc1)c1ccccc1)c1ccc(Cl)cc1 (single isomer, unassigned) [2 Isomer 3] | 2740

Row | Compound | IC50 [nM]
39 | Cn1cc(-c2ccc(NC(=O)C(NCCc3ccc(C#N)cc3)c3ccc(C(F)(F)F)cc3)nc2)cn1 (single isomer, unassigned) [120 Isomer 1] | > 2000
40 | N#Cc1ccc(CCNC(C(=O)Nc2ccn(-c3ccccc3)n2)c2ccccc2)cc1 (single isomer, unassigned) [50 Isomer 2] | > 5000
41 | CC(CNC(C(=O)Nc1ccc(-c2cnn(C(F)F)c2)cn1)c1cnn(C)c1)c1ccc(C#N)cc1 (single isomer, unassigned) [128 Isomer 2] | > 2000
42 | CC(CNC(C(=O)Nc1ccc(-c2cnn(C)c2)cn1)c1cnn(C)c1)c1ccc(C#N)cc1 (single isomer, unassigned) [127 Isomer 2] | > 2000
43 | CC(CNC(C(=O)Nc1ccc(-c2cnn(C)n2)cn1)c1ccccc1)c1ccc(C#N)cc1 (single isomer, unassigned) [98 Isomer 4] | 1460
44 | Cc1nnc2n1CCN(c1ccc(NC(=O)C(NCCc3ccc(C#N)cc3)c3ccccc3)nc1)C2 (single isomer, unassigned) [60 Isomer 1] | 32.5
45 | Cc1cn(-c2ccc(NC(=O)C(NCCc3ccc(C#N)cc3)c3ccccc3)nc2)nn1 (single isomer, unassigned) [78 Isomer 2] | > 2000
46 | Cc1ccc(-c2ccc(NC(=O)C(NCC(C)c3ccc(C#N)cc3)c3ccccc3)nc2)nn1 (single isomer, unassigned) [15 Isomer 3] | > 2000
47 | Cc1cnc(-c2ccc(NC(=O)[C@@H](NCCc3ccc(Cl)cc3)c3ccccc3)cc2)[nH]1 (single isomer, unassigned) [9 Isomer 2] | 133
48 | CC(Cc1ccc(Cl)cc1)NC(C(=O)Nc1ccc(-c2cnn(C)c2)cc1)c1ccccc1 (single isomer, unassigned) [3 Isomer 4] | 3890
49 | Cn1cc(-c2ccc(NC(=O)C(NCCc3ccc(C(F)(F)F)nc3)c3ccccc3)nc2)cn1 (single isomer, unassigned) [140 Isomer 2] | > 2000
50 | N#Cc1ccc(CCNC(C(=O)Nc2ccc(N3CCN(CC(F)(F)F)CC3)cn2)c2ccccc2)cc1 (single isomer, unassigned) [40 Isomer 2] | > 5000
51 | CC(CNC(C(=O)Nc1ccc(N2CCN(C)S2(=O)=O)cn1)c1ccccc1)c1ccc(C#N)cc1 (single isomer, unassigned) [108 Isomer 4] | > 2000
52 | CCCCCCc1cccc(C(NCCc2ccc(C#N)cc2)C(=O)Nc2ccc(-c3cnn(C)c3)cn2)c1 (single isomer, unassigned) [118 Isomer 1] | > 2000
53 | Cc1cc(NC(=O)C(NC[C@@H](C)c2ccc(C#N)cc2)c2ccccc2)ncc1-c1cnn(C)c1 (single isomer, unassigned) [115 Isomer 1] | > 2000
54 | Cn1cc(-c2ccc(NC(=O)C(NCCc3ccc(C#N)c(F)c3)c3ccccc3)nc2)cn1 (single isomer, unassigned) [85 Isomer 1] | 31.9
55 | CC(CNC(C(=O)Nc1ccc(-c2cnn(C3CCC3)c2)cn1)c1ccccc1)c1ccc(C#N)cc1 (single isomer, unassigned) [52 Isomer 3] | 31.1
56 | N#Cc1ccc(CCNC(C(=O)Nc2ccc(-c3cccnn3)cc2)c2ccccc2)cc1 (single isomer, unassigned) [12 Isomer 1] | > 5000
